According to US9169241B2, “Quinolinyloxyphenylsulfonamides” (Max-Planck-Gesellschaft Zur Forderung der Wissenschaften …, priority 2009, dated 2015):
Like-named read-outs stand apart in the source and are kept apart here.

Key:
A172 = test: Cell vitality assay (ATP assay, CellTiter-Glo); assay type: cell-based; conditions: Homo sapiens, A 172; A172, 72 h; Table IIa; read-out: IC50 ATP-Assay after 72 h A172
Procedure, shortened: (§1)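 1000 cells/well were exposed to compound at 12.5 μM down to 0.195 μM (twofold steps) or DMSO for 72 h. ATP was then measured by luminescence after 10 min reagent lysis at room temperature. IC50 was taken as the concentration giving 50% of the DMSO-control ATP level.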

C8161 = test: Cell vitality assay (ATP assay, CellTiter-Glo); assay type: cell-based; conditions: Homo sapiens; C8161, 72 h; Table IIa; read-out: IC50 ATP-Assay after 72 h C8161
Procedure, shortened: as §1

Hs578T [1] = test: Cell vitality assay (ATP assay, CellTiter-Glo); assay type: cell-based; conditions: Homo sapiens, Hs-578T, 72 h
Procedure, shortened: as §1

MDA-MB231 = test: Cell vitality assay (ATP assay, CellTiter-Glo); assay type: cell-based; conditions: Homo sapiens, MDA-MB-231; MDA-MB231, 72 h; Table IIa; read-out: IC50 ATP-Assay after 72 h MDA-MB231
Procedure, shortened: as §1

SF126 = test: Cell vitality assay (ATP assay, CellTiter-Glo); assay type: cell-based; conditions: Homo sapiens, SF-126; SF126, 72 h; Table IIa; read-out: IC50 ATP-Assay after 72 h SF126
Procedure, shortened: as §1

SF763 = test: Cell vitality assay (ATP assay, CellTiter-Glo); assay type: cell-based; conditions: SF763, 72 h; Table IIa; read-out: IC50 ATP-Assay after 72 h SF763
Procedure, shortened: as §1

U118 = test: Cell vitality assay (ATP assay, CellTiter-Glo); assay type: cell-based; conditions: U118, 72 h; Table IIa; read-out: IC50 ATP-Assay after 72 h U118
Procedure, shortened: as §1

U138 = test: Cell vitality assay (ATP assay, CellTiter-Glo); assay type: cell-based; conditions: U138, 72 h; Table IIa; read-out: IC50 ATP-Assay after 72 h U138
Procedure, shortened: as §1

indicated cell line = test: Wound healing migration assay (Table IV); assay type: cell-based; conditions: compounds at 12.5, 6.25, 3.125 μM, 48 h-72 h
Procedure, shortened: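 Cells seeded at 150000/24 well, grown to monolayer overnight, scratched with a pipette tip, then treated with compound at 12.5, 6.25 or 3.125 μM versus DMSO. Stopped by crystal violet fixation at 48-72 h once control wounds closed; IC50 taken as 50% wound size between t0 and t48 or t72.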

Hs578T [2] = test: Matrigel outgrowth assay/branching assay; assay type: cell-based; conditions: Homo sapiens, Hs-578T; HS578T cell line; Table Ib; read-out: Total branching inhibition in Matrigel HS578T
Procedure, shortened: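 Read-out: microscopic images of invasive branching structures at 48 h, 72 h and 96 h. Cells sat on a 3 mg/ml Matrigel layer (set 1 h, 37° C) with compound at 3.125, 1.56 and 0.78 μM or DMSO. A concentration counts as positive only with complete branching inhibition.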

cells = test: Boyden chamber migration assay (Table VI); assay type: cell-based; conditions: Homo sapiens, Hs-578T, 16 h, Hs578T cells; 16 h migration
Procedure, shortened: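 20000 cells seeded in the upper compartment in 0% FCS plus 0.1% BSA and left 16 h to migrate through […] membrane toward 10% FCS medium below. Non-migrated cells swabbed off; cells on the filter underside fixed and counted.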

IC50 (MDA-MB231): 12.5 to 50 µM
IC50 (indicated cell line; Homo sapiens, A 172, A172 cells, read-out: IC50 Wound healing Assay A172): ≤ 12.5 µM
IC50 (indicated cell line; Homo sapiens, SF-126, SF126 cells, read-out: IC50 Wound healing Assay SF126): ≤ 12.5 µM
IC50 (indicated cell line; Homo sapiens, C8161 cells, read-out: IC50 Wound healing Assay C8161): ≤ 12.5 µM
IC50 (indicated cell line; SF763 cells, read-out: IC50 Wound healing Assay SF763): ≤ 12.5 µM
IC50 (indicated cell line; U118 cells, read-out: IC50 Wound healing Assay U118): ≤ 12.5 µM
IC50 (cells): ≤ 5 µM
melting point: 190 to 192 °C
SMILES: COc1cc2c(Oc3ccc(NS(=O)(=O)c4c(F)cccc4F)cc3F)ccnc2cc1OCCCN1CCOCC1 [Example 77, 2,6-Difluoro-N-{3-fluoro-4-[6-methoxy-7-(3-morpholin-4-yl-propoxy)-quinolin-4-yloxy]-phenyl}-benzenesulfonamide]
IC50 (A172): ≤ 12.5 µM
IC50 (C8161): ≤ 12.5 µM
IC50 (Hs578T [1]; HS578T cell line, Table Ib, read-out: IC50 ATP-Assay HS578T after 72 h): ≤ 12.5 µM
IC50 (Hs578T [1]; Hs578T, Table IIa, read-out: IC50 ATP-Assay after 72 h Hs578T): ≤ 12.5 µM
IC50 (SF126): 12.5 to 50 µM
IC50 (SF763): ≤ 12.5 µM
IC50 (U118): ≤ 12.5 µM
IC50 (U138): ≤ 12.5 µM
IC50 (Hs578T [2]): ≤ 10 µM
